Results reported in patent US20120328660A1, “IMMUNOGENIC COMPOSITIONS USEFUL IN PROVOKING AN INTEGRATED RESPONSE TO TUMOR ANTIGENS” (priority 2011, published 2012).

Assays:
[1] = tested on: NY-ESO-1 region consisting of amino acids 100-129; assay: ELISA with assay OLPs as coating antigens to determine epitopes recognized by induced IgG; format: in vivo, human; conditions: accelerating the response, increasing titer, broadening antibody repertoire
Procedure: In these experiments, the epitopes recognized by the NY-ESO-1 specific IgGs that were induced by immunization were determined. ELISAs were carried out, using standard methods, with the assay OLPs supra being used as coating antigens. Antibody titers of subjects were tested at week 16, with the exception of one sample, which was tested at week 13. IgG responses were most frequent and strongest against the NY-ESO-1 region consisting of amino acids 121-150. The NY-ESO-1 region consisting of amino acids 80-109 was also recognized frequently, and in the case of the NY-ESO-1 region consisting of amino acids 100-129, all patients who received the combination of the peptides, Montanide, and polyICLC had relevant antibodies, as did 4/9 of the patients who received the peptides in Montanide only. There was a much lower response to the NY-ESO-1 region consisting of amino acids 142-173. In all cases, polyICLC enhanced the humoral, immune response, not only by accelerating the response and increasing titer, but also by broadening antibody repertoire.

[2] = tested on: CD4+ T cell lines; assay: Cytokine production of CD4+ T cell lines by sandwich ELISA; format: in vivo, human
Procedure: Equal amounts of CD4^+ T cell lines created supra, and autologous EBV-B cells (5×10^4) were co-cultured in 250 μl RPMI and 10% FCS. After the EBV-B cells had been pulsed overnight or not with the assay OLPs and cultured for 24 hours, supernatant was harvested, and stored at −20° C. until sandwich ELISAs were carried out using standard methods. The cytokines which were assayed included IFN-γ, GM-CSF, IL-4, IL-9, IL-10, IL-13, IL-17, and TGF-β. These are all known to be produced by different CD4^+ subsets.

Substance: polyICLC
- effect on humoral immune response [1]: enhanced
- IL-9 production by T cells following immunization ([2]; in vivo): inhibited completely
- level of IL-4 ([2]; week 13 and 16): significantly suppressed
- level of IL-9 ([2]; week 13 and 16): significantly suppressed
- level of IL-13 ([2]; week 13 and 16): significantly suppressed
- IL-9/IL-4 ratio ([2]; when polyICLC was used): significantly lower
